Where a name gives a salt, the structure may show the parent alone.

One assay deals with MFN2 gene. The assay is described as follows: Screening for MFN2 mRNA expression by qPCR in motor neurons derived from iPS cells of CMT patients with MFN2 mutations. The format is cell-based, human. As to conditions: relative to vehicle (DMSO) defined as 1, motor neurons having the mutated MFN2 gene, compound added on day 10, RNA extracted on day 12. An excerpt:
(§1) iPS cells established according to the method described in NPL 3 were used. The iPS cells were derived from peripheral-blood mononuclear cells (PBMCs) from CMT2 patients with MFN2 gene mutations (CMT1 (R94Q) and CMT2 (H128Y)) and healthy subjects without MFN2 mutations (Healthy). A feeder-free medium was used to perform maintenance culture of the iPS cells.
(§2) mRNA was extracted, and mRNA expression levels of MFN1 and MFN2 were quantified by qPCR.
(§3) The overview of the screening method is shown in the upper left of FIG. 2. Constructs expressing Lhx3, Ngn2, and Isl1 under tetracycline induction were introduced into the iPS cells using PiggyBac vectors, whereby stable lines were generated. Doxycycline was added to the iPS cells, and the iPS cells were cultured for 7 days using a neuro-differentiation medium to generate motor neurons (Imamura et al. Sci Transl Med 2017). […]
(§4) Screening was performed to search for existing drugs that increase the expression levels of the MIFN1 gene or MFN2 gene using the motor neurons having the mutated MFN2 gene. […] The expression levels of the MFN1 gene and the MFN2 gene are expressed as relative values with the mRNA expression levels thereof when a vehicle (DMSO) was administered being defined as 1.
On the technique in general: Real-time PCR tracks product formation cycle by cycle.

Another assay has as its system MFN1 gene. The assay is described as follows: Screening for MFN1 mRNA expression by qPCR in motor neurons derived from iPS cells of CMT patients with MFN2 mutations. Type of assay: cell-based, human. As to conditions: relative to vehicle (DMSO) defined as 1, motor neurons having the mutated MFN2 gene, compound added on day 10, RNA extracted on day 12.
Text: as §1, §2, §3, §4

On to `CC(C)N=c1cc2n(-c3ccc(Cl)cc3)c3ccccc3nc-2cc1Nc1ccc(Cl)cc1` [Clofazimine, N,5-bis(4-chlorophenyl)-3-propan-2-yliminophenazin-2-amine], for which the “Relative expression level of the MFN2 gene” value in the assay with MFN2 gene came out at 1.197. Further, the “Relative expression level of the MFN1 gene” value in the assay with MFN1 gene was 1.889.
The like results for `CC[C@@H](CO)NC(=O)[C@@H]1C=C2c3cccc4[nH]cc(c34)C[C@H]2N(C)C1` [Methylergometrine Maleate, (6aR,9R)—N—((S)-1-hydroxybutan-2-yl)-7-methyl-4,6,6a,7,8,9-hexahydroindolo[4,3-fg]quinoline-9-carboxamide maleate] were, in that order, 3.676 and 2.007.
